The text below walks through data of article PMC4662070 (Nature communications, 2015).

Structures are written as SMILES.

Usually Kd stands for the free concentration of one partner at which half of the binding sites on the other are occupied at equilibrium, for simple one-to-one binding. High values mean weaker binding, low ones tighter binding.

The target of this assay is FABP5 (Homo sapiens, UniProt Q01469). Nature of the assay: fluorescence titration. The class given is binding.
Chain of FABP5 (Q01469 2-135): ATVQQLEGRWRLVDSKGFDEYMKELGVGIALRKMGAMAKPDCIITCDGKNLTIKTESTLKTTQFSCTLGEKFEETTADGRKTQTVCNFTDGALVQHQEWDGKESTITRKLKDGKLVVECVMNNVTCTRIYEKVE

`O=S(=O)(O)c1cccc2cccc(Nc3ccccc3)c12` [ANS, 1-anilinonaphthalene-8-sulfonic acid] registered a Kd of 70 ± 6.4 nM.
